Patent publication US10961176B2, “Compound hexadecaphlorethol isolated from Ishige okamurae and use thereof” (Jeju National University Industry-Academic Cooperation …, priority 2018, dated 2021)

What was measured:
[1] = system: alloxan-treated adult zebrafish; experiment: Blood glucose level in alloxan-treated adult zebrafish; assay type: in vivo
Procedure: Wild-type adult zebrafish were treated for 1 hour with 2 mg/ml alloxan and then for 1 hour with 1% glucose in the absence of insulin. Subsequently, the reaction solution was exchanged with water in which the zebrafish were then left for 1 hour before treatment with HdP, metformin, or BAPTA-AM for 90 min. Thus, the experiment groups included a non-treated group, an alloxan-treated group (control), a group treated with alloxan and HdP (0.3 μg/g body weight), a group treated with alloxan and metformin (5 μg/g body weight), a group treated with alloxan and BAPTA-AM (3 μg/g body weight), and a group treated with alloxan, BAPTA-AM (3 μg/g body weight), and HdP (0.3 μg/g body weight).

yeast α-glucosidase = experiment: Inhibitory activity against α-glucosidase; assay type: biochemical; conditions: yeast enzyme, PNP-G substrate, pH 7.0, 37° C.; read-out: IC50 (concentration necessary for inhibiting the activity of α-glucosidase by 50%)
Procedure: Inhibitory activity against α-glucosidase was evaluated using a yeast enzyme according to the method of Watanabe et al. (Watanabe, Kawabata, Kurihara, & Niki, 1997). In the reaction condition of pH 7.0 and 37° C., 5 mM p-nitrophenyl α-D-glucopyranoside (PNP-G) serving as a substrate was reacted with a dilution of 32 mU/ml enzyme (yeast α-glucosidase, Sigma) in 100 mM phosphate buffer and inhibitory activity was measured using spectrophotometry. The sample was reacted with PNP-G for 5 min and the absorbance of 4-nitrophenol released upon the hydrolysis of PNP-G was read at 405 nm. Subsequently, the same amount of the substrate solution was added and reacted at room temperature for an additional five min., after which the reaction was stopped by adding 0.5 M Na2CO3. A change in absorbance at 405 nm was measured.
Inhibitory activity (%) against α-glucosidase was calculated according to the formula (1-absorbance of sample-added group/absorbance of solvent-added group)×100).
Acabose, which is an oral hypoglycemic agent inhibitory of α-glucosidase, was used as a positive control.

[2] = system: differentiated myoblast C2C12 cells; experiment: Glucose uptake of C2C12 cells, 2-NBDG flow cytometry (FACS); assay type: cell-based, mouse; conditions: treated with HdP for 24 hours, 2-NBDG fluorescence, dose-dependent
Procedure: The mouse-derived myoblast C2C12 cells (ATCC, Manassas, Va., USA) were suspended in DMEM (Dulbecco's Modified Eagle's Media) medium supplemented with 10% FBS and an antibiotic and cultured at 37° C. under a 5% CO2 atmosphere in an incubator. Upon 80% confluency, the C2C12 cells subjected to differentiation in a DMEM medium containing 2% horse serum and a low concentration of glucose for 5 days, with the medium freshly changed every three days. The differentiated cells were serum starved for 12 hours in serum free DMEM containing a low concentration of glucose, washed with PBS, and then reacted for 24 hours with the sample (HdP) in a fresh serum free DMEM.
Glucose uptake of mouse-derived myoblast C2C12 cells was measured using flow cytometry (FACS) according to the (2-(N-(7-nitrobenz-2oxa-1,3-diazol-4-yl)amino)-2-deoxyglucose (2-NBDG) assay method (Cell Death Dis. 2017 Oct. 5. 8 (10):e3078). The cultured cells were incubated with 10 μM 2-NBDG at 37° C. for 24 hours and then analyzed using BD FACS Cantoll (BD Biosciences, NJ, USA), with the fluorescence of 2-NBDG detected in a FITC channel.

zebrafish embryos [3] = experiment: HdP toxicity in zebrafish embryo; assay type: in vivo; conditions: 1 μg/ml or less HdP, exposed until 168 hours after fertilization
Procedure: Four days after fertilization, each of the embryos (n=15) was transferred to 12-well plates, each containing 950 μl of an embryo medium (distilled water containing 60 ppm salt) and 50 μl of HdP (0.01, 0.1, 1, and 10 μg/ml) and the viability of zebrafish embryos exposed to HdP for 168 hours after fertilization were measured.

zebrafish embryos [4] = experiment: Intracellular calcium level in zebrafish embryo using Fluo-4; assay type: in vivo
Procedure: Intracellular calcium levels of zebrafish embryos were measured using a calcium-sensitive Fluo-4 probe. Embryos were incubated with Fluo-4 at 28.5±1° C. for 30 min before treatment with HdP (0.6, 3, and 6 μg/ml). In order to block the entry of calcium into cells, the embryos were reacted with the calcium chelator BAPTA-AM 0.1 mM for 1 hour before incubation with Fluo-4. The experiment groups included a non-treated group (N), a group treated with Fluo-4 alone (F), a group treated with HdP alone (0.6, 3, and 6 μg/ml), a group treated with Fluo-4 and HdP (0.6, 3, and 6 μg/ml), and a group treated with Fluo-4, BAPTA-AM, and HdP (6 μg/ml).

Row | SMILES | blood glucose level (effect compared with HdP) ([1]; metformin 5 μg/g body weight, 90 min) | IC50 (yeast α-glucosidase) | glucose uptake into differentiated C2C12 cells [2] | survival rate of zebrafish embryos (zebrafish embryos [3]) | blood glucose level ([1]; HdP 0.3 μg/g body weight, 90 min) | blood glucose level, HdP plus BAPTA-AM versus alloxan plus BAPTA-AM ([1]; HdP 0.3 μg/g with BAPTA-AM 3 μg/g body weight) | intracellular Ca2+ level (Fluo-4 phosphorescence) with calcium chelator BAPTA-AM (zebrafish embryos [4]; Fluo-4, BAPTA-AM 0.1 mM and HdP 6 μg/ml) | intracellular Ca2+ level (Fluo-4 phosphorescence) (zebrafish embryos [4]; HdP 0.6, 3 and 6 μg/ml with Fluo-4, versus group treated with Fluo-4 alone)
1 | CN(C)C(=N)N=C(N)N [metformin, reference compound] | similar | – | – | – | – | – | – | –
2 | Oc1cc(O)cc(Oc2cc(O)c(Oc3c(O)cc(O)cc3Oc3cc(O)c(Oc4cc(O)cc(O)c4Oc4cc(O)cc(O)c4Oc4cc(O)cc(O)c4Oc4cc(O)c(Oc5c(O)cc(O)cc5Oc5c(O)cc(Oc6c(O)cc(Oc7c(O)cc(Oc8c(O)cc(Oc9c(O)cc(Oc%10c(O)cc(Oc%11c(O)cc(O)cc%11O)cc%10O)cc9O)cc8O)cc7O)cc6O)cc5O)c(O)c4)c(O)c3)c(O)c2)c1 [HdP, hexadecaphlorethol] | – | 55 µM | significantly increase | ≥ 90% | significantly reduced | No significant differences | phosphorescence decrease | significant increase
